{"source": "patent US12115229B2", "about": "“Nanosystems for controlled transport of active molecules for diagnostic, prognostic and therapeutic purposes” (FIDIA FARMACEUTICI S.P.A., priority 2015, dated 2024)", "test_system": "tumour cell line 4T1 (breast cancer)", "test": "In vitro MTT cytotoxicity assay, 4T1", "format": "cell-based", "procedure": "The cytotoxic activity of Doxo-Hyalusphere was tested on tumour cell lines 4T1 (breast cancer) and A549 (lung cancer), using the in vitro MTT assay.\nFor the purpose of the test, cell line 4T1 was cultured in RPMI medium (Gibco) and A549 in DMEM (Gibco). 10% FBS (foetal bovine serum, Gibco), 1% L-glutamine (Gibco) and 1% penicillin/streptomycin (Gibco) were added to both culture media at the temperature of 37° C. in the presence of 5% CO2.\nThe cells were plated in 24-well microplates (Nunc) (50000 cells per well in 500 μl of medium). After 12 hours, 100 μl of culture medium containing the various conditions studied was added to each well: • 1) Nanoparticles with PEG (PEG-NP); • 2) Nanoparticles with rHyal_Sk (Hyal-NP); • 3) Doxorubicin in solution (Free DOX); • 4) Doxorubicin bonded to nanoparticles (DOX-NP) • 5) Doxo-HyaluSpheres (DOX-Hyal-NP),\nThe nanoparticle concentrations were established at 40000 per cell, and the plates were incubated for 24 and 96 hours. […]\nMetabolic activity was evaluated after 30 minutes by reading the optical density (OD) with an ELISA Reader (Bio-Rad) spectrophotometer at the wavelength of 570 nm. […] The fraction of viable cells was determined on the basis of the ratio between the mean optical density of the treated samples and that of the untreated control sample."}
{"molecule": "COc1cccc2c1C(=O)c1c(O)c3c(c(O)c1C2=O)C[C@@](O)(C(=O)CO)C[C@@H]3O[C@H]1C[C@H](N)[C@H](O)[C@H](C)O1", "note": "[Free-DOX, Doxorubicin]", "values": [{"measurement": "tumour cell survival compared with the doxorubicin nanosystems", "setting": "free doxorubicin 0.75 μg/mL", "value": "Quantitatively identical results"}, {"measurement": "cell death", "setting": "free drug equivalent to 3 nM (1.6 ng/mL), 24 and 96 hours", "value": "did not lead to cell death"}]}
